Patent publication US11826373B2, “Methods for treatment of diseases” (Galera Labs, LLC, priority 2011, dated 2023)

Test: Activity toward hydrogen peroxide
Type: biochemical
In the case of `CC(C)c1cc(C(=O)O)c([O-])c(C(C)C)c1.CC(C)c1cc(C(=O)O)c([O-])c(C(C)C)c1.[Cu+2]` [CuDIPS, copper [II] diisopropylsalicylate], the “activity toward hydrogen peroxide” value is reported as “significant activity”.
With “manganese [III] tetrakis-(5,10,15,20)-benzoic acid porphyrin [MnTBAP]” the “activity toward hydrogen peroxide” value was “significant activity”.
With mangafodipir the “activity toward hydrogen peroxide” value was “significant activity”.
